Legend:
Assay type in all cases: cell-based, Escherichia coli
E. coli W = test: pH-controlled batch fermentation (10% xylose)
LY180 = test: pH-controlled batch fermentation (10% xylose)
LY180 (pLOI4856) = test: Furfural toxicity / MIC in tube cultures, ucpA plasmid; details: Escherichia coli, 48 h, read-out: MIC of furfural
Description: (§1) Furfural toxicity was measured in tube cultures (13 mm by 100 mm) containing 4 ml of AM1 medium with 50 g liter^−1 xylose, 12.5 mg liter^−1 ampicillin, furfural, and other supplements as indicated (Miller et al., 2009a, b). Cultures were inoculated to an initial density of 22 mg dcw liter^−1. IPTG (0.1 mM) was included for fucO induction. Cell mass was measured at 550 nm after incubation for 48 h (37° C.). For cysteine supplement experiment, the culture condition was the same but included 0.1 mM cysteine as an amendment.
(§2) Derivatives of LY180 containing these plasmids were tested for furfural tolerance with (0.1 mM IPTG) and without IPTG induction using an MIC assay (Miller et al., 2009a; Miller et al., 2010; Wang et al., 2011b).

LY180(pTrc99A) = test: Furfural toxicity / MIC in tube cultures, vector control; details: Escherichia coli, 48 h, read-out: MIC of furfural
Description: as §1, §2

E. coli W/pTrc99A = test: pH-controlled batch fermentation (10% xylose); details: 10 mM furfural

O=Cc1ccco1 [furfural]
Cell Yield (E. coli W; 8 mM furfural): 1.9 ± 0.1 g/L
Furfural-dependent slow growth Duration (E. coli W; 8 mM furfural): 13 ± 1 h
Furfural-dependent slow growth μ (E. coli W; 8 mM furfural): 0.18 ± 0.01 h⁻¹
μ Max (E. coli W; 8 mM furfural): 0.19 ± 0.01 h⁻¹
Cell Yield (E. coli W; 10 mM furfural): 2.0 ± 0.1 g/L
Furfural-dependent slow growth Duration (E. coli W; 10 mM furfural): 21 ± 1 h
Furfural-dependent slow growth μ (E. coli W; 10 mM furfural): 0.06 ± 0.02 h⁻¹
μ Max (E. coli W; 10 mM furfural): 0.20 ± 0.02 h⁻¹
Cell Yield (LY180; 8 mM furfural): 4.0 ± 0.1 g/L
Furfural-dependent slow growth μ (LY180; 8 mM furfural): 0.09 ± 0.01 h⁻¹
μ Max (LY180; 8 mM furfural): 0.16 ± 0.01 h⁻¹
Cell Yield (LY180; 10 mM furfural): 0.08 ± 0.02 g/L
Furfural-dependent slow growth Duration (LY180; 10 mM furfural): >72 h
Furfural-dependent slow growth μ (LY180; 10 mM furfural): <0.04 h⁻¹
μ Max (LY180; 10 mM furfural): <0.04 h⁻¹
MIC (LY180 (pLOI4856)): 15 mM
MIC (LY180(pTrc99A)): 10 mM
Cell Yield (E. coli W/pTrc99A): 2.0 ± 0.3 g/L
Furfural-dependent slow growth Duration (E. coli W/pTrc99A): 26 ± 4 h
Furfural-dependent slow growth μ (E. coli W/pTrc99A): 0.03 ± 0.01 h⁻¹
μ Max (E. coli W/pTrc99A): 0.13 ± 0.01 h⁻¹

Source: patent US9347077B2, “Over-expression of a putative oxidoreductase (UcpA) for increasing furfural or 5-hydroxymethylfurfural tolerance” (UNIVERSITY OF FLORIDA RESEARCH FOUNDATION, INCORPORATED, priority 2011, dated 2016)
